Measured values published in ChEMBL document CHEMBL1201862, “PubChem BioAssay data set” (2004).
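Five concentrations, 48 hours, 96-well plates. GI50 is the concentration that inhibits growth by half.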 The source made the active and inactive calls. Cut-off read from the data, not from the text of the source: active = GI50 up to about 1.1 µM and inactive = higher.

Legend:
Experiment in all cases: NCI-60 cell line screen, 48 h
[1] = system: MOLT-4
[2] = system: SK-MEL-2
[3] = system: IGROV-1
[4] = system: M14
[5] = system: UO-31
[6] = system: SF-295
[7] = system: SK-MEL-5
[8] = system: UACC-257
[9] = system: U-251
[10] = system: NCI-H23
[11] = system: 786-0
[12] = system: SF-539
[13] = system: OVCAR-3
[14] = system: HT-29
[15] = system: HCT-15

| SMILES | GI50 [1] | GI50 [2] | GI50 [3] | GI50 [4] | GI50 [5] | GI50 [6] | GI50 [7] | GI50 [8] | GI50 [9] | GI50 [10] | GI50 [11] | GI50 [12] | GI50 [13] | GI50 [14] | GI50 [15] |
| --- | --- | --- | --- | --- | --- | --- | --- | --- | --- | --- | --- | --- | --- | --- | --- |
| O=C1[C@@H]2C(c3ccccc3[N+](=O)[O-])=[N+](c3ccccc3)O[C@@H]2C(=O)N1c1ccc(Cc2ccc(N3C(=O)[C@H]4C(c5ccccc5[N+](=O)[O-])=[N+](c5ccccc5)O[C@H]4C3=O)cc2)cc1 | > 100 µM (inactive) | > 100 µM (inactive) | > 100 µM (inactive) | 16.4 µM (inactive) | > 100 µM (inactive) | > 100 µM (inactive) | 43.1 µM (inactive) | > 100 µM (inactive) | > 100 µM (inactive) | > 100 µM (inactive) | > 100 µM (inactive) | > 100 µM (inactive) | > 100 µM (inactive) | > 100 µM (inactive) | > 100 µM |
| CC(=O)OC1[C@H]2c3cc4c(cc3CN3CCC(C[C@@H]1OC(C)=O)C23)OCO4 (stereo not given in full) | > 75 µM (inactive) |  | > 75 µM (inactive) | > 75 µM (inactive) | > 75 µM (inactive) | > 75 µM (inactive) |  | > 75 µM (inactive) | > 75 µM (inactive) | > 75 µM (inactive) | > 75 µM (inactive) | > 75 µM (inactive) | > 75 µM (inactive) | > 75 µM (inactive) | > 75 µM |
| COc1cc([C@@H]2c3cc4c(cc3[C@@H](NC(=O)c3ccc(C#N)cc3)C3COC(=O)[C@@H]32)OCO4)cc(OC)c1O (stereo not given in full) | 3.63 µM (inactive) | 2.29 µM (inactive) | 0.191 µM (active) | 0.721 µM (active) | 4.03 µM (inactive) | 0.233 µM (active) | 0.743 µM (active) | 2.58 µM (inactive) | 0.106 µM (active) | 0.198 µM (active) | 0.411 µM (active) | 0.249 µM (active) | 1.85 µM (inactive) | 1.25 µM (inactive) | 2.28 µM |
| C/C(=N/NC(N)=S)C(CN1CCOCC1)C(C1=C(O)c2ccccc2OC1)c1ccccc1 (stereo not given) | 39 µM (inactive) | > 100 µM (inactive) | > 100 µM (inactive) | > 100 µM (inactive) | > 100 µM (inactive) | > 100 µM (inactive) | > 100 µM (inactive) | > 100 µM (inactive) | > 100 µM (inactive) | > 100 µM (inactive) | > 100 µM (inactive) | > 100 µM (inactive) | > 100 µM (inactive) | > 100 µM (inactive) |  |
| O=C(CSc1nnc(Cc2ccccc2)o1)Nc1ccc([N+](=O)[O-])cc1 | 87.3 µM (inactive) | > 100 µM (inactive) | > 100 µM (inactive) | > 100 µM (inactive) | 74.1 µM (inactive) | 52 µM (inactive) | > 100 µM (inactive) | > 100 µM (inactive) | > 100 µM (inactive) | 89.7 µM (inactive) | > 100 µM (inactive) | > 100 µM (inactive) | > 100 µM (inactive) | 48 µM (inactive) | > 100 µM |
| c1ccc(N2CCN(CCN3CCc4c([nH]c5ccccc45)C3c3cccnc3)CC2)cc1 (stereo not given) | > 100 µM (inactive) |  | > 100 µM (inactive) | > 100 µM (inactive) | 23.8 µM (inactive) | 80 µM (inactive) | > 100 µM (inactive) | > 100 µM (inactive) | > 100 µM (inactive) | > 100 µM (inactive) | 33.1 µM (inactive) | 20.5 µM (inactive) | > 100 µM (inactive) | > 100 µM (inactive) | > 100 µM |
| COC(=O)NN=C1C(C)(C)C(=O)C1(C)C | > 100 µM (inactive) | > 100 µM (inactive) | > 100 µM (inactive) | > 100 µM (inactive) | > 100 µM (inactive) | > 100 µM (inactive) | > 100 µM (inactive) | > 100 µM (inactive) | > 100 µM (inactive) | > 100 µM (inactive) | > 100 µM (inactive) | > 100 µM (inactive) | > 100 µM (inactive) | > 100 µM (inactive) |  |
| O=C(Nc1ccc(Cl)c(C(F)(F)F)c1)C(=O)C(C(=O)/C=C/c1ccccc1)C1OC(=O)c2ccccc21 (stereo not given) | > 100 µM (inactive) |  | > 100 µM (inactive) | > 100 µM (inactive) | > 100 µM (inactive) | > 100 µM (inactive) |  | > 100 µM (inactive) | 51.9 µM (inactive) | > 100 µM (inactive) | > 100 µM (inactive) |  | > 100 µM (inactive) | > 100 µM (inactive) | > 100 µM |
| Cn1cc2c(n1)c(N/N=C/c1ccccc1)nn1nnnc21 | > 100 µM (inactive) |  | > 100 µM (inactive) | > 100 µM (inactive) | > 100 µM (inactive) | > 100 µM (inactive) | > 100 µM (inactive) | > 100 µM (inactive) | > 100 µM (inactive) | > 100 µM (inactive) | > 100 µM (inactive) | > 100 µM (inactive) | > 100 µM (inactive) | > 100 µM (inactive) | > 100 µM |
| CCOP(=O)(OCC)/C(C#N)=C/c1ccco1 | > 100 µM (inactive) | > 100 µM (inactive) | > 100 µM (inactive) | > 100 µM (inactive) | > 100 µM (inactive) | > 100 µM (inactive) | > 100 µM (inactive) | > 100 µM (inactive) | > 100 µM (inactive) | > 100 µM (inactive) | > 100 µM (inactive) | > 100 µM (inactive) |  | > 100 µM (inactive) | > 100 µM |
| O=c1c2ccccc2nc(-c2ccccc2)n1NC(=S)Nc1cccc(Cl)c1 | > 100 µM (inactive) | > 100 µM (inactive) | > 100 µM (inactive) | > 100 µM (inactive) | 89.1 µM (inactive) | 64.4 µM (inactive) | > 100 µM (inactive) | > 100 µM (inactive) | 43.8 µM (inactive) | > 100 µM (inactive) | 68.1 µM (inactive) | 79.1 µM (inactive) |  | > 100 µM (inactive) | > 100 µM |
| COc1cccc(NC(=O)CC(=O)N2NC(c3ccccc3)C(/N=N/c3cccc(C(=O)O)c3)C2=O)c1 (stereo not given) | 86.3 µM (inactive) |  | > 100 µM (inactive) | > 100 µM (inactive) | 27.5 µM (inactive) | > 100 µM (inactive) | > 100 µM (inactive) | > 100 µM (inactive) | > 100 µM (inactive) | > 100 µM (inactive) | > 100 µM (inactive) | > 100 µM (inactive) | 38.2 µM (inactive) | > 100 µM (inactive) |  |
| CCOC(=O)/C(=C\c1cccs1)P(=O)(OCC)OCC | 25.8 µM (inactive) | 16.4 µM (inactive) |  | 16.1 µM (inactive) | 19.7 µM (inactive) | 29.4 µM (inactive) | 17 µM (inactive) | 23.2 µM (inactive) | 20.2 µM (inactive) | 18.9 µM (inactive) | 21.9 µM (inactive) | 20.8 µM (inactive) | 19.8 µM (inactive) | 20.6 µM (inactive) | 17.5 µM |
| CSC(C1c2ccccc2N(C)c2[nH]c(=O)n(C)c(=O)c21)S(=O)(=O)c1ccc(C)cc1 (stereo not given) | 40 µM (inactive) | > 100 µM (inactive) | > 100 µM (inactive) |  | > 100 µM (inactive) | > 100 µM (inactive) | > 100 µM (inactive) | 60 µM (inactive) | > 100 µM (inactive) | 54.8 µM (inactive) | > 100 µM (inactive) | 42.7 µM (inactive) | > 100 µM (inactive) | > 100 µM (inactive) | 64.3 µM |
